Experimental data from US20160067221A1, “USE OF ERGOTHIONEINE FOR INDUCING ACTIVITY OF NRF2 IN CELL” (China Medical University, priority 2014, published 2016).

Tested on: UVA-irradiated HaCaT cells
Assay: TUNEL assay (UVA-induced apoptosis)
Assay type: cell-based, human
Details: 500 nM 24 hours prior to UVA 15 J/cm^2, vs UVA alone
Experimental: The apoptosis can induce DNA double-strand breaks to generate a DNA fragment, To examine the effect of the ergothioneine on the UVA-induced apoptosis, an apoptotic cell death is measured using a terminal deoxyucleotidyl transferase-meditated dUTP-fluorescein nick end-labeking (TUNEL) assay, and protein expressions of apoptosis-related proteins, Caspase-3, Caspase-9, Bax and Bcl-2, are measured using a Western blot analysis. Therefore, the aforementioned methods in this example can analyze whether pretreating with the ergothioneine improves the UVA-induced apoptosis. A chromosome breakage represents an initial stage of a […]. The TUNEL assay is based on a presence of nicks in the DNA which can be identified by terminal deoxynucleotidyl transferase (TdT) at 3′ OH ends, ad the 3′ OH ends bind to dUTPs that are secondarily labeled with a fluorescent marker. After a coloration, the cells suffered the apoptosis can be identified. The HaCaT cells are incubated with or without the ergothioneine for 24 hours, wherein the concentration of the ergothioneine is 500 nM. After incubation, the HaCaT cells are exposed to the UVA (15 J/cm^2), and then cultured for 4 hours, Then, the HaCaT cells are incubated with TUNEL reaction buffer. The stained cells are visualized using the fluorescence microscope and photographed. […] FIG. 5-(B) is the quantitative diagram of the TUNEL assay.

C[N+](C)(C)[C@@H](Cc1c[nH]c(=S)[nH]1)C(=O)[O-] [ergothioneine, 2-mercapto histidine trimethylbetain]
amount of TUNEL fluorescence (apoptosis): enormously reduced
